Usually melting point stands for the temperature, or range, at which the solid turns liquid. Broadly, the IC50 is the midpoint of a concentration-inhibition curve.

Here are results for 37 compounds from patent US8063064B2, “Non-nucleoside reverse transcriptase inhibitors” (Roche Palo Alto LLC, priority 2006, dated 2011).

Structures can show the parent of a compound that is named as a salt.

Series [1] has as its target T1, HIV-1 RT (Human immunodeficiency virus type 1 group M subtype B, UniProt P03366). The series can be described thus: Heteropolymer HIV Reverse Transcriptase Assay: Inhibitor IC50 Determination. The settings on record: purified recombinant enzyme, poly(rA)/oligo(dT)16 template-primer, 4 nM HIV-1 RT, 37° C. 30 min; TABLE 2. The class given is biochemical. How it is done: HIV-1 RT assay was carried out in 96-well Millipore MultiScreen MADVNOB50 plates using purified recombinant enzyme and a poly(rA)/oligo(dT)16 template-primer in a total volume of 50 μL. The assay constituents were 50 mM Tris/HCl, 50 mM NaCl, 1 mM EDTA, 6 mM MgCl2, 5 μM dTTP, 0.15 μCi [^3H] dTTP, 5 μg/ml poly (rA) pre annealed to 2.5 μg/ml oligo (dT)16 and a range of inhibitor concentrations in a final concentration of 10% DMSO. Reactions were initiated by adding 4 nM HIV-1 RT and after incubation at 37° C. for 30 min, they were stopped by the addition of 50 μl ice cold 20% TCA and allowed to precipitate at 4° C. for 30 min. The precipitates were collected by applying vacuum to the plate and sequentially washing with 3×200 μl of 10% TCA and 2×200 μl 70% ethanol. Finally, the plates were dried and radioactivity counted in a Packard TopCounter after the addition of 25 μl scintillation fluid per well. IC50's were calculated by plotting % inhibition versus log10 inhibitor concentrations.

Series [2] concerns the target T1, HIV-1 RT. The series can be described thus: Homopolymer HIV Reverse Transcriptase Assay: Inhibitor IC50 Determination. The series is classed as biochemical. The settings on record: purified recombinant enzyme, poly(rA)/oligo(dT)16 template-primer, 5 nM HIV-1 RT, 37° C. 30 min; TABLE 3. How it is done:
HIV-1 RT assay was carried out in 96-well Millipore filtermat NOB50 plates using purified recombinant enzyme and a poly(rA)/oligo(dT)16 template-primer in a total volume of 50 μL. The assay constituents were 50 mM Tris/HCl, 50 mM NaCl, 1 mM EDTA, 6 mM MgCl2, 5 μM dTTP, 0.1 μCi [^3H] dTTP, 5 μg/ml poly (rA) pre annealed to 2.5 μg/ml oligo (dT)16 and a range of inhibitor concentrations in a final concentration of 10% DMSO. Reactions were initiated by adding 5 nM HIV-1 RT and after incubation at 37° C. for 30 min, they were stopped by the addition of 50 μl ice cold 20% TCA and allowed to precipitate at 4° C. for 30 min. The precipitates were collected by applying vacuum to the plate and sequentially washing with 2×200 μl of 10% TCA and 2×200 μl 70% ethanol. Finally the plates were dried and radioactivity counted in a Wallac Microbeta 1450 after the addition of 15 μL scintillation fluid per well. IC50's (TABLE 3) were calculated by plotting % inhibition versus log10 inhibitor concentrations.

The compound `CN1CCc2c(Cc3ccc(Br)c(Oc4cc(Cl)cc(C#N)c4)c3F)n[nH]c2C1=O` had a melting point of 235.5 to 237.1 °C.
Regarding `N#Cc1cc(C#N)cc(Oc2c(Br)ccc(Cc3n[nH]c4ncccc34)c2F)c1` [Compound I-16, 5-[6-Bromo-2-fluoro-3-(1H-pyrazolo[3,4-b]pyridin-3-ylmethyl)-phenoxy]-isophthalonitrile], the melting point lay within 230 to 232.9 °C. Besides, the IC50 at HIV-1 RT [1] was 3.3 nM.
`COc1ccc2c(Cc3ccc(Br)c(Oc4cc(Cl)cc(C#N)c4)c3F)n[nH]c2n1`: the melting point fell in the range of 223.8 to 225 °C.
With `N#Cc1cc(Cl)cc(Oc2c(Br)ccc(Cc3n[nH]c4c(C#N)cccc34)c2F)c1`, the melting point lay in the range of 250 to 251.1 °C.
For the compound `N#Cc1cc(Cl)cc(Oc2c(Br)ccc(Cc3n[nH]c4ncncc34)c2F)c1`, the melting point lay within 215 to 218 °C.
Regarding `N#Cc1cc(Oc2c(Br)ccc(Cc3n[nH]c4ccccc34)c2F)cc(C(F)F)c1` [Compound I-6, 3-[6-Bromo-2-fluoro-3-(1H-indazol-3-ylmethyl)-phenoxy]-5-difluoromethyl-benzonitrile], the IC50 at HIV-1 RT [1] is 11.8 nM.
As for `N#Cc1cc(C#N)cc(Oc2c(C3CC3)ccc(Cc3n[nH]c4ncccc34)c2F)c1`, the melting point was in the range of 221 to 223.6 °C.
Turning to `Cc1ccc(Cc2n[nH]c3ncccc23)c(F)c1Oc1cc(Cl)cc(C#N)c1`, the melting point lay in the range of 215 to 218.8 °C.
In turn, `N#Cc1cc(Cl)cc(Oc2c(C(F)F)ccc(Cc3n[nH]c4nnccc34)c2F)c1` showed a melting point of 177.5 to 178.2 °C.
Compound `N#Cc1cc(Cl)cc(Oc2c(C3CC3)ccc(Cc3n[nH]c4ncccc34)c2F)c1` registered a melting point of 215 to 216.8 °C.
With `N#Cc1cc(Oc2c(Cl)ccc(Cc3n[nH]c4ncccc34)c2F)cc(C(F)F)c1` [Compound I-28, 3-[6-Chloro-2-fluoro-3-(1H-pyrazolo[3,4-b]pyridin-3-ylmethyl)-phenoxy]-5-difluoromethyl-benzonitrile], the melting point was in the range of 198 to 199 °C. Also, the IC50 at HIV-1 RT [1] amounted to 3.7 nM.
The compound `COc1ccc(Cc2n[nH]c3ncccc23)c(F)c1Oc1cc(C#N)cc(C(F)F)c1` yielded a melting point of 197.9 to 201.9 °C.
As to `N#Cc1cc(Oc2c(Br)ccc(Cc3cc(-c4ccccc4)[nH]n3)c2F)cc(C(F)F)c1` [Compound I-5, 3-[6-Bromo-2-fluoro-3-(5-phenyl-1H-pyrazol-3-ylmethyl)-phenoxy]-5-difluoromethyl-benzonitrile], the melting point lay in the range of 78.3 to 90.1 °C. In addition, the IC50 at HIV-1 RT [2] is 55 nM.
Compound `Cc1cc(C#N)cc(Oc2c(Cl)ccc(Cc3n[nH]c4nnccc34)c2F)c1` had a melting point of 200 to 202.9 °C.
Still for that read-out and setting: the result for `N#Cc1cc(Cl)cc(Oc2c(Br)ccc(Cc3n[nH]c4cnccc34)c2F)c1` reads 182 to 186.9 °C.
Consider `N#Cc1cc(Cl)cc(Oc2c(Cl)ccc(Cc3n[nH]c4nnccc34)c2F)c1` [Compound I-11, 3-Chloro-5-[6-chloro-2-fluoro-3-(1H-pyrazolo[3,4-c]pyridazin-3-ylmethyl)-phenoxy]-benzonitrile], for which the IC50 on HIV-1 RT [1] is 1 nM.
In turn, `N#Cc1cc(Cl)cc(Oc2c(Cl)ccc(Cc3n[nH]c4ncccc34)c2F)c1` displayed a melting point of 210 to 215.5 °C.
On to `CS(=O)(=O)Nc1cccc2c(Cc3ccc(Br)c(Oc4cc(Cl)cc(C#N)c4)c3F)n[nH]c12`, for which the melting point lay within 234 to 236 °C.
The same measure, in the same setting: as for `N#Cc1cc(C#N)cc(Oc2c(Cl)ccc(Cc3n[nH]c4nnccc34)c2F)c1`, the figure is 222.8 to 224.7 °C; as for `N#Cc1cc(Cl)cc(Oc2c(Cl)ccc(Cc3cc(-c4ccccc4)[nH]n3)c2F)c1`, 148 to 150.1 °C.
With `Cn1c(=O)ccc2c(Cc3ccc(Br)c(Oc4cc(Cl)cc(C#N)c4)c3F)n[nH]c21` [Compound I-48, 3-[6-Bromo-2-fluoro-3-(7-methyl-6-oxo-6,7-dihydro-1H-pyrazolo[3,4-b]pyridin-3-ylmethyl)-phenoxy]-5-chloro-benzonitrile, TFA salt], the IC50 on HIV-1 RT [1] was 0.9 nM.
For the compound `N#Cc1cc(Cl)cc(Oc2c(Br)ccc(Cc3n[nH]c4ccncc34)c2F)c1`, the melting point is 216 to 218.5 °C.
The same measure, in the same setting: as for `Cn1nc(Cc2ccc(Br)c(Oc3cc(Cl)cc(C#N)c3)c2F)c2cccnc21`, the figure is 138.6 to 142.6 °C; as for `N#Cc1cc(Cl)cc(Oc2c(Br)ccc(Cc3n[nH]c4nnccc34)c2F)c1`, 237.6 to 240.8 °C.
On the same count and under the same terms, the result for `CS(=O)(=O)c1ccc(Cc2n[nH]c3nnccc23)c(F)c1Oc1cc(Cl)cc(C#N)c1` reads 239.5 to 240.7 °C.
On the same count and under the same terms, as for `Cc1ccc(Cc2n[nH]c3ncccc23)c(F)c1Oc1cc(C#N)cc(C(F)F)c1`, the figure is 212.5 to 214.4 °C.
`N#Cc1cc(Oc2c(Br)ccc(Cc3n[nH]c4cnccc34)c2F)cc(C(F)F)c1`: the melting point was in the range of 166 to 166.9 °C.
In the case of `N#Cc1cc(Cl)cc(Oc2c(Br)ccc(Cc3n[nH]c4c([N+](=O)[O-])cccc34)c2F)c1`, the melting point was in the range of 214.2 to 216 °C.
`N#Cc1cc(Cl)cc(Oc2c(Br)ccc(Cc3n[nH]c4nc(Cl)ncc34)c2F)c1` [Compound I-13, 3-[6-Bromo-3-(6-chloro-1H-pyrazolo[3,4-d]pyrimidin-3-ylmethyl)-2-fluoro-phenoxy]-5-chloro-benzonitrile] registered a melting point of 216 to 217.9 °C. Also, the IC50 at HIV-1 RT [1] is 8.6 nM.
As to `CCc1ccc(Cc2n[nH]c3ncccc23)c(F)c1Oc1cc(Cl)cc(C#N)c1`, the melting point lay within 205 to 206.9 °C.
Turning to `N#Cc1cc(Cl)cc(Oc2c(Br)ccc(Cc3n[nH]c4c(N)cccc34)c2F)c1`, the melting point fell in the range of 179.9 to 181.3 °C.
In turn, `N#Cc1cc(Cl)cc(Oc2c(Br)ccc(Cc3n[nH]c4ncccc34)c2F)c1` [Compound I-7, 3-[6-Bromo-2-fluoro-3-(1H-pyrazolo[3,4-b]pyridin-3-ylmethyl)-phenoxy]-5-chloro-benzonitrile] gave a melting point of 242 to 243 °C. Further, the IC50 on HIV-1 RT [1] came out at 7.6 nM.
`N#Cc1cc(Oc2c(Br)ccc(Cc3n[nH]c4ncccc34)c2F)cc(C(F)F)c1` had a melting point of 192 to 194.4 °C.
The compound `N#Cc1cc(Cl)cc(Oc2c(Br)ccc(Cc3n[nH]c4ncc(F)cc34)c2F)c1` came in with a melting point of 206.5 to 209 °C.
Still for that read-out and setting: as for `N#Cc1cc(Cl)cc(Oc2c(Br)ccc(Cc3n[nH]c4nc(Cl)ccc34)c2F)c1`, the figure is 212.3 to 214 °C.
Turning to `N#Cc1cc(Cl)cc(Oc2c(Cl)ccc(Cc3n[nH]c4ccccc34)c2F)c1` [Compound I-3, 3-Chloro-5-[6-chloro-2-fluoro-3-(1H-indazol-3-ylmethyl)-phenoxy]-benzonitrile], the melting point lay within 163.3 to 163.7 °C. In addition, the IC50 at HIV-1 RT [2] turned out to be 52 nM.
In turn, `N#Cc1cc(Cl)cc(Oc2c(Br)ccc(Cc3n[nH]c4nccnc34)c2F)c1` registered a melting point of 204 to 205 °C.
